The text below walks through data of patent US9365588B2, “Benzoxazines as modulators of ion channels” (Vertex Pharmaceuticals Incorporated, priority 2011, dated 2016).

For this assay, the target named is human NaV 1.7 (Homo sapiens, UniProt Q15858). The assay can be described thus: E-VIPR optical membrane potential assay with electrical stimulation. The class given is cell-based. Conditions: sodium channel inhibition; read-out: Binned Activity Data (IC50). An outline of the steps:
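Membrane-potential read-out: background-subtracted 460 nm/580 nm ratio during a 9 s current-controlled stimulus, 400 Hz scan. Before stimulation, NaV1.7-HEK cells carried coumarin/oxonol dye and compound (final DMSO 0.625%) for 20–35 min at room temperature; tetracaine 125 μM served as positive control.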

Sequence of human NaV 1.7 (Q15858 whole entry): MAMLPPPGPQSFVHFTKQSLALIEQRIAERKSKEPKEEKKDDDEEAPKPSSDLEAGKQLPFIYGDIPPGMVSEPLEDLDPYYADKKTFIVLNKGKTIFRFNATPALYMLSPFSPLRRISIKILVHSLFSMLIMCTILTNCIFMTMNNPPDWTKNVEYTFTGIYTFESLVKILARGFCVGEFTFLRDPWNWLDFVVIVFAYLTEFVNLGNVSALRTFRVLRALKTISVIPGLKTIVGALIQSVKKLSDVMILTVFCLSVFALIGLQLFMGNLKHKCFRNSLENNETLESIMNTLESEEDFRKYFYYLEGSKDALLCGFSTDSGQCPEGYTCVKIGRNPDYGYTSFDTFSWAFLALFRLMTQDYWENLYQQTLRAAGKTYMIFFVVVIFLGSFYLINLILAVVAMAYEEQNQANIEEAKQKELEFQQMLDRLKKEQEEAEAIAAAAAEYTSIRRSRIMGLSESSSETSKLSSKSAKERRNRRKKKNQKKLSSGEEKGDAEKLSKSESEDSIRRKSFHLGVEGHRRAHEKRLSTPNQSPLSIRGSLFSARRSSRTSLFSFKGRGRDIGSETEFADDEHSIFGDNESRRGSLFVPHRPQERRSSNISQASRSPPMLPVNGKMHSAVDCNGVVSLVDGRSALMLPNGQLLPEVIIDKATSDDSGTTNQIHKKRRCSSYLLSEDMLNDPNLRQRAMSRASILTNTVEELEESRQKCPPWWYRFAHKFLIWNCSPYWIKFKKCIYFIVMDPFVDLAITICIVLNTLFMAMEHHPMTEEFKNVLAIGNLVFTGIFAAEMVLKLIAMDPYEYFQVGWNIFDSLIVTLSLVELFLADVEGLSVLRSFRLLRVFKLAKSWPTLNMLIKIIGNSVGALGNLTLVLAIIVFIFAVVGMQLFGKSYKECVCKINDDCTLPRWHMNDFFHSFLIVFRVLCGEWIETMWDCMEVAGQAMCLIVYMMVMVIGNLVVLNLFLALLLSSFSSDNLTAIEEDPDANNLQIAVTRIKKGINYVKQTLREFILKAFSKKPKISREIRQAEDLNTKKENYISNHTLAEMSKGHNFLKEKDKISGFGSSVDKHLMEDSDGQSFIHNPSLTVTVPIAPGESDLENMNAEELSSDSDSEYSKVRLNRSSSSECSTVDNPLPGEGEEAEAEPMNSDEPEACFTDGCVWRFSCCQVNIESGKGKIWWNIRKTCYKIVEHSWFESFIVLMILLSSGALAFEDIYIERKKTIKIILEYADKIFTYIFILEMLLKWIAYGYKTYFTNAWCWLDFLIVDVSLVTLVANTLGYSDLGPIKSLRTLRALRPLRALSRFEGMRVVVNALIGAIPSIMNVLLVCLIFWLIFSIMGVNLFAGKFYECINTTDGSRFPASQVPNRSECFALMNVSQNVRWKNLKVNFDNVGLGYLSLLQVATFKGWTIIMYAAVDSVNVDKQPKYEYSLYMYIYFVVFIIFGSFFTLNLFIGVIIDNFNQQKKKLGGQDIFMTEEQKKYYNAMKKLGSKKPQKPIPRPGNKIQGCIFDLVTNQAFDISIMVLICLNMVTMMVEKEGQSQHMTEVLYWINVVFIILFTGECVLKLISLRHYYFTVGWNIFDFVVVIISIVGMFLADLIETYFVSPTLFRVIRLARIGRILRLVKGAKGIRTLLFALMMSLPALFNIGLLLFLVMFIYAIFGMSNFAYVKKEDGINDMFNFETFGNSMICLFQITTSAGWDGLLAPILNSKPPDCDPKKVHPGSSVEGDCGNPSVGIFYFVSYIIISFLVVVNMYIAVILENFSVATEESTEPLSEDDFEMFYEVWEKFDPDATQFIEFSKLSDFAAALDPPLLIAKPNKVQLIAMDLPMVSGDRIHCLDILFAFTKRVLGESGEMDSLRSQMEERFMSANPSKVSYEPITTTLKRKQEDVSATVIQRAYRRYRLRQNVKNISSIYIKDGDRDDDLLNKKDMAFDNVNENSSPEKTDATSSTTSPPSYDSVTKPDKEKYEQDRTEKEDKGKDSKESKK

For `Cc1cc(C(=O)N2CCC3(CC2)Oc2ccccc2-n2c(C)ccc23)ccc1OC(C)C` [Compound 359], the IC50 (in general, the concentration needed to halve the response being measured) is no more than 2 µM.

`CCCOc1ccc(C(=O)N2CCC3(CC2)Oc2ccccc2-n2cccc23)cc1C` [Compound 764]: the IC50 was no more than 2 µM.

Consider `COC(C)(C)c1ccc(C(=O)N2CCC3(CC2)Oc2ccccc2-n2cccc23)cc1C` [Compound 817], for which the 50% inhibitory concentration (IC50) was no more than 2 µM.

For `Cn1cc2c(n1)-c1ccccc1OC21CCN(C(=O)c2ccc3nc(N)sc3c2)CC1` [Compound 325], the concentration for half-maximal inhibition (IC50) fell in the range of 2 to 5 µM.

As to `O=C(c1ccc(S(=O)(=O)CC2CCC2)cn1)N1CCC2(CC1)Oc1ccccc1-n1c(C(F)(F)F)ccc12` [Compound 873], the IC50 was no more than 2 µM.

As for `COc1ccc(F)c(F)c1C(=O)N1CCC2(CC1)Oc1ccccc1-c1c2cnn1C` [Compound 353], the IC50 was greater than 5 µM.

Regarding `CCS(=O)(=O)c1ccc(C(=O)N2CCC3(CC2)Oc2ccccc2-c2c3cnn2C)cc1C` [Compound 821], the half-maximal inhibitory concentration (IC50) was no more than 2 µM.

With `Cn1cc2c(n1)-c1ccccc1OC21CCN(C(=O)c2ccc(CC(C)(C)O)cc2)CC1` [Compound 598], the IC50 was no more than 2 µM.

In the case of `COc1cc(C(=O)N2CCC3(CC2)Oc2cc(Cl)ccc2-n2cccc23)ccc1C(C)(C)O` [Compound 216], the concentration for half-maximal inhibition (IC50) is no more than 2 µM.

`COc1cc(C(=O)N2CCC3(CC2)Oc2ccccc2-c2c3cnn2C)ccc1OCCC(C)C` [Compound 362]: the IC50 was no more than 2 µM.

As to `CCc1ccc(C(=O)N2CCC3(CC2)Oc2ccccc2-n2cccc23)cc1OC` [Compound 239], the IC50 is no more than 2 µM.

As for `COCc1ccc2c(c1)OC1(CCN(C(=O)c3ccc(S(=O)(=O)C(C)C)cc3)CC1)c1ccc(C#N)n1-2` [Compound 832], the 50% inhibitory concentration (IC50) was greater than 5 µM.

Take `Cc1cc(C(=O)N2CCC3(CC2)Oc2ccccc2-n2c(C#N)ccc23)ccc1S(C)(=O)=O` [Compound 509]: the concentration for half-maximal inhibition (IC50) is no more than 2 µM.

As to `COc1c(CO)cccc1C(=O)N1CCC2(CC1)Oc1ccccc1-n1c(C#N)ccc12` [Compound 3], the concentration for half-maximal inhibition (IC50) is no more than 2 µM.

In the case of `COc1cc(C(=O)N2CCC3(CC2)Oc2ccccc2-n2cccc23)ccc1C(C)(C)O` [Compound 59], the concentration for half-maximal inhibition (IC50) is no more than 2 µM.

For the compound `COc1cc(C(=O)N2CCC3(CC2)Oc2ccccc2-c2c3cnn2C)ccc1O` [Compound 396], the IC50 was no more than 2 µM.

In the case of `Cc1cc2n(c1)-c1ccccc1OC21CCN(C(=O)c2ccc(OC(C)C)c(C)c2)CC1` [Compound 852], the IC50 was no more than 2 µM.

`Cc1cc(C(=O)N2CCC3(CC2)Oc2ccc(Cl)cc2-c2c3cnn2C)ccc1OC(C)C` [Compound 213]: the IC50 was no more than 2 µM.

Regarding `CC(C)(C(=O)O)S(=O)(=O)c1ccc(C(=O)N2CCC3(CC2)Oc2ccccc2-n2c(C(F)(F)F)ccc23)cc1` [Compound 12], the half-maximal inhibitory concentration (IC50) was 2 to 5 µM.

For `CC(C)(C)c1ccc(C(=O)N2CCC3(CC2)Oc2cc(F)ccc2-n2cccc23)cc1C#N` [Compound 536], the half-inhibitory concentration (IC50) is no more than 2 µM.

For the compound `CC(CO)NS(=O)(=O)c1ccc(C(=O)N2CCC3(CC2)Oc2ccccc2-n2c(C#N)ccc23)cc1` (centres unmarked) [Compound 49], the IC50 was greater than 5 µM.

On to `CC(C)S(=O)(=O)c1ccc(C(=O)N2CCC3(CC2)Oc2cc(CO)ccc2-n2c(C#N)ccc23)cc1` [Compound 431], for which the IC50 is no more than 2 µM.

As for `Cn1ncc2c1-c1ccccc1OC21CCN(C(=O)c2cccc(OC(F)(F)F)c2)CC1` [Compound 619], the half-inhibitory concentration (IC50) was greater than 5 µM.

As to `Cc1cc(C(=O)N2CCC3(CC2)Oc2ccccc2-c2c3cnn2C)ccc1C(C)(C)O` [Compound 750], the IC50 was no more than 2 µM.

As to `COc1ccc(C(=O)N2CCC3(CC2)Oc2ccccc2-n2cccc23)cc1S(N)(=O)=O` [Compound 542], the 50% inhibitory concentration (IC50) lay in the range of 2 to 5 µM.

Regarding `CC(C)S(=O)(=O)c1ccc(C(=O)N2CCC3(CC2)Oc2ccccc2-n2c(C(F)(F)F)ccc23)cc1` [Compound 621], the 50% inhibitory concentration (IC50) was no more than 2 µM.

Turning to `COCCOc1ccc(C(=O)N2CCC3(CC2)Oc2cc(Cl)ccc2-n2cccc23)cc1OC` [Compound 139], the IC50 is no more than 2 µM.

As for `O=C(c1ccc(S(=O)(=O)C(F)F)cc1)N1CCC2(CC1)Oc1ccccc1-n1c(C(F)(F)F)ccc12` [Compound 778], the IC50 is no more than 2 µM.

In the case of `COc1cc(C(=O)N2CCC3(CC2)Oc2cc(F)ccc2-n2cccc23)ccc1O[C@H]1CCOC1` [Compound 592], the IC50 was no more than 2 µM.

With `COc1cccc(OC)c1C(=O)N1CCC2(CC1)Oc1ccccc1-c1c2cnn1C` [Compound 748], the 50% inhibitory concentration (IC50) was in the range of 2 to 5 µM.

Consider `O=C(c1ccc(O[C@H]2CCOC2)c(C(F)(F)F)c1)N1CCC2(CC1)Oc1ccccc1-n1cccc12` [Compound 263], for which the IC50 was no more than 2 µM.

As for `O=C(c1ccccc1O)N1CCC2(CC1)Oc1cc(Cl)ccc1-n1cccc12` [Compound 790], the IC50 was no more than 2 µM.

On to `Cn1ncc2c1-c1cc(Cl)ccc1OC21CCN(C(=O)c2ccccc2OC(F)(F)F)CC1` [Compound 653], for which the half-maximal inhibitory concentration (IC50) is no more than 2 µM.

For `COc1cc(OC(C)(C)C)ccc1C(=O)N1CCC2(CC1)Oc1ccccc1-c1c2cnn1C` [Compound 94], the IC50 is no more than 2 µM.

As for `COc1cccc2c(C(=O)N3CCC4(CC3)Oc3ccccc3-c3c4cnn3C)c[nH]c12` [Compound 460], the IC50 was no more than 2 µM.

As to `Cc1cc(C(=O)N2CCC3(CC2)Oc2ccccc2-n2ccnc23)ccc1OC(C)C` [Compound 153], the half-inhibitory concentration (IC50) was no more than 2 µM.

For the compound `COc1c(CO)cccc1C(=O)N1CCC2(CC1)Oc1ccccc1-n1c(C(F)(F)F)ccc12` [Compound 23], the half-maximal inhibitory concentration (IC50) was no more than 2 µM.

Consider `Cn1ncc2c1-c1ccccc1OC21CCN(C(=O)c2ccc(O)c(F)c2)CC1` [Compound 856], for which the IC50 was no more than 2 µM.

Take `CC(C)(O)c1ccc(C(=O)N2CCC3(CC2)Oc2ccccc2-n2c3ccc2S(C)(=O)=O)cc1` [Compound 607]: the IC50 lay within 2 to 5 µM.

As to `N#Cc1ccc2n1-c1ccccc1OC21CCN(C(=O)c2ccc(C3(O)COC3)cc2)CC1` [Compound 864], the IC50 was no more than 2 µM.

For the compound `Cn1ncc2c1-c1ccccc1OC21CCN(C(=O)c2cccc3cccnc23)CC1` [Compound 651], the IC50 is no more than 2 µM.

With `C[C@@](O)(CO)c1ccc(C(=O)N2CCC3(CC2)Oc2ccccc2-n2c(C(F)(F)F)ccc23)cc1` [Compound 640], the IC50 is no more than 2 µM.

`Cn1cc2c(n1)-c1ccccc1OC21CCN(C(=O)c2cccc(F)c2OC(F)F)CC1` [Compound 388]: the IC50 is no more than 2 µM.

Consider `COc1cc(C(=O)N2CCC3(CC2)Oc2cc(F)ccc2-c2c3cnn2C)ccc1OC(C)C` [Compound 617], for which the IC50 is no more than 2 µM.

As to `Cc1nc2cccc(C(=O)N3CCC4(CC3)Oc3cc(Cl)ccc3-n3cccc34)c2o1` [Compound 393], the IC50 was no more than 2 µM.

Take `CC(C)(C)S(=O)(=O)c1ccsc1C(=O)N1CCC2(CC1)Oc1ccccc1-n1c(C(F)(F)F)ccc12` [Compound 207]: the half-maximal inhibitory concentration (IC50) is no more than 2 µM.

In the case of `N#Cc1ccc2n1-c1ccccc1OC21CCN(C(=O)c2ccc(O)cc2)CC1` [Compound 671], the concentration for half-maximal inhibition (IC50) was no more than 2 µM.

Consider `O=C(c1cc(Cl)cc(Cl)c1)N1CCC2(CC1)Oc1cc(Cl)ccc1-n1cccc12` [Compound 277], for which the IC50 was no more than 2 µM.

With `Cc1nc(C(=O)N2CCC3(CC2)Oc2ccccc2-n2c(C(F)(F)F)ccc23)ccc1OC(C)C` [Compound 658], the IC50 was no more than 2 µM.

In the case of `Cc1ccc(C(=O)N2CCC3(CC2)Oc2ccccc2-n2cccc23)cc1C` [Compound 159], the IC50 is no more than 2 µM.

For the compound `CCc1ccc(C(=O)N2CCC3(CC2)Oc2ccccc2-c2c3cnn2C)cc1OC` [Compound 251], the IC50 was no more than 2 µM.

`CC(=O)c1ccc2n1-c1ccccc1OC21CCN(C(=O)c2ccc(OC(C)C)c(C)c2)CC1` [Compound 171]: the concentration for half-maximal inhibition (IC50) is no more than 2 µM.

Turning to `Cc1cccc(C(=O)N2CCC3(CC2)Oc2ccccc2-c2c3cnn2C)c1O` [Compound 868], the half-maximal inhibitory concentration (IC50) fell in the range of 2 to 5 µM.

With `Cn1cc2c(n1)-c1ccccc1OC21CCN(C(=O)c2ccc(S(=O)(=O)NC(C)(C)C)cc2)CC1` [Compound 824], the IC50 was no more than 2 µM.

With `Cc1cc(S(=O)(=O)C(C)C)ccc1C(=O)N1CCC2(CC1)Oc1ccccc1-c1c2cnn1C` [Compound 53], the concentration for half-maximal inhibition (IC50) was no more than 2 µM.

As to `Cn1ncc2c1-c1ccccc1OC21CCN(C(=O)c2ccc3c(c2)OC(C)(C)C3)CC1` [Compound 422], the IC50 fell in the range of 2 to 5 µM.

In the case of `COc1cc(Cl)ccc1C(=O)N1CCC2(CC1)Oc1cc(Cl)ccc1-n1cccc12` [Compound 434], the 50% inhibitory concentration (IC50) is no more than 2 µM.

For `CCc1ccc(C(=O)N2CCC3(CC2)Oc2ccccc2-n2c(C(F)(F)F)ccc23)cc1OC` [Compound 347], the IC50 is no more than 2 µM.

In the case of `COC[C@@H](C)Oc1ccc(C(=O)N2CCC3(CC2)Oc2ccccc2-n2cccc23)cc1OC` [Compound 449], the half-maximal inhibitory concentration (IC50) is no more than 2 µM.

As for `COc1cc(C(=O)N2CCC3(CC2)Oc2cc(Cl)ccc2-n2cccc23)ccc1OC[C@H](O)CO` [Compound 90], the half-maximal inhibitory concentration (IC50) was no more than 2 µM.

For `O=C(c1ccc2[nH]ncc2c1)N1CCC2(CC1)Oc1ccccc1-n1c(C(F)(F)F)ccc12` [Compound 556], the 50% inhibitory concentration (IC50) lay within 2 to 5 µM.

As to `COc1cc(C(=O)N2CCC3(CC2)Oc2cc(F)ccc2-n2cccc23)ccc1OC[C@H]1COC(C)(C)O1` [Compound 228], the 50% inhibitory concentration (IC50) is no more than 2 µM.

Consider `COc1ccc(C(=O)N2CCC3(CC2)Oc2cc(Cl)ccc2-n2cccc23)c(C)c1` [Compound 111], for which the IC50 is no more than 2 µM.

Regarding `N#Cc1ccc2n1-c1ccccc1OC21CCN(C(=O)c2ccc(S(=O)(=O)NCCO)cc2)CC1` [Compound 17], the IC50 lay in the range of 2 to 5 µM.

`COc1ccc(C(=O)N2CCC3(CC2)Oc2ccccc2-c2c3cnn2C)cc1C(F)(F)F` [Compound 143]: the IC50 lay within 2 to 5 µM.

As to `COc1cccc2[nH]cc(C(=O)N3CCC4(CC3)Oc3ccccc3-c3c4cnn3C)c12` [Compound 463], the concentration for half-maximal inhibition (IC50) is no more than 2 µM.

`CC(C)(CO)c1ccc(C(=O)N2CCC3(CC2)Oc2ccccc2-n2c(C#N)ccc23)cc1` [Compound 810]: the IC50 was no more than 2 µM.

With `CC(C)Oc1ccc(C(=O)N2CCC3(CC2)Oc2ccccc2-c2c3cnn2C)c(Cl)c1` [Compound 581], the IC50 is no more than 2 µM.
